The supplement of paper PMC10307832

Legend:
Assay in all cases: relative viability (nuclei count vs DMSO), 5 days (fraction); higher = more cells survive
[1] = compound: C[C@]1(O)C[C@@H](c2nc(-c3ccc4ccc(-c5ccccc5)nc4c3)c3c(N)nccn32)C1 [Linsitinib] + CC(=O)c1c(C)c2cnc(Nc3ccc(N4CCNCC4)cn3)nc2n(C2CCCC2)c1=O [Palbociclib] (partner 0.5 µM)
How it was run: (§1)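 Relative viability is defined as nuclei in treated wells over nuclei in vehicle wells. Duplicate plates were run and medians reported. Lung cancer cell lines in 1536-well plates were dosed by pin tool one day after seeding, with one drug or with a fixed anchor-drug dose plus five library-drug doses (not always all listed) in √10 steps, and nuclei were counted after 5 days.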

[2] = compound: Cc1ccc(C(=O)N(CCCN)[C@@H](c2nc3cc(Cl)ccc3c(=O)n2Cc2ccccc2)C(C)C)cc1 [Ispinesib] + O=C(CCCCCCC(=O)Nc1ccccc1)NO [Vorinostat] (partner 1 µM)
How it was run: as §1

[3] = compound: C[C@]1(O)C[C@@H](c2nc(-c3ccc4ccc(-c5ccccc5)nc4c3)c3c(N)nccn32)C1 [Linsitinib] + Cc1nc(NC(=O)N2CCC[C@H]2C(N)=O)sc1-c1ccnc(C(C)(C)C(F)(F)F)c1 [Alpelisib] (partner 2 µM)
How it was run: as §1

[4] = compound: Cc1ccc(C(=O)N(CCCN)[C@@H](c2nc3cc(Cl)ccc3c(=O)n2Cc2ccccc2)C(C)C)cc1 [Ispinesib] + Nc1nc2[nH]cc(CCc3ccc(C(=O)N[C@@H](CCC(=O)O)C(=O)O)cc3)c2c(=O)[nH]1 [Pemetrexed] (partner 0.2 µM)
How it was run: as §1

Cell Line	relative viability ([1]; first compound 0.01 µM)	relative viability ([1]; first compound 0.03162 µM)	relative viability ([1]; first compound 0.1 µM)	relative viability ([1]; first compound 0.3162 µM)	relative viability ([1]; first compound 1 µM)	relative viability ([2]; first compound 0.001 µM)	relative viability ([2]; first compound 0.003162 µM)	relative viability ([2]; first compound 0.01 µM)	relative viability ([2]; first compound 0.03162 µM)	relative viability ([2]; first compound 0.1 µM)	relative viability ([3]; first compound 0.01 µM)	relative viability ([3]; first compound 0.03162 µM)	relative viability ([3]; first compound 0.1 µM)	relative viability ([3]; first compound 0.3162 µM)	relative viability ([3]; first compound 1 µM)	relative viability ([4]; first compound 0.001 µM)	relative viability ([4]; first compound 0.003162 µM)	relative viability ([4]; first compound 0.01 µM)	relative viability ([4]; first compound 0.03162 µM)	relative viability ([4]; first compound 0.1 µM)
NCI-H2023	0.4	0.245	0.37	0.256	0.26	0.646	0.563	0.43	0.237	0.162	0.533	0.426	0.502	0.425	0.392	0.241	0.241	0.19	0.144	0.115
Calu-6											1.01	0.919	1.04	1.03	0.794					
NCI-H522	1.01	0.83	1.04	0.673	0.977	0.824	0.897	0.803	0.592	0.351						0.961	0.975	0.859	0.586	0.364
HOP-62	0.435	0.424	0.49		0.45	0.685	0.631	0.949	0.667	0.25	0.862	1.09	0.949		0.933	0.319	0.327	0.34	0.26	0.117
H3255	0.309	0.341	0.313	0.321	0.299	0.79	1.09	0.804	0.479	0.413	0.605	0.858	0.732	0.591	0.771	0.575	0.604	0.515	0.525	0.39
NCI-H1734	0.338	0.394	0.334	0.313	0.31	0.854	0.904	0.91	0.552	0.262	0.688	0.744	0.65	0.692	0.612	0.414	0.415	0.395	0.336	0.248
SK-MES-1	0.325	0.297	0.323	0.296	0.324	1.31	1.19	1.08	0.233	0.221	0.9	1.02	0.907	0.814	0.854	1.02	1.04	0.805	0.206	0.234
NCI-H1792		0.712	0.527	0.599	0.375						0.803	0.751	0.615	0.606	0.538	1.05	1.15	0.903	0.448	0.135
NCI-H1650	0.399	0.299	0.305	0.246	0.253	0.779	0.535	0.521	0.416	0.234						0.381	0.368	0.372	0.321	0.161
